Assay results: the supplement of paper PMC11208160

Test: recombinant UMI read abundance after kanamycin selection (control-corrected) (log10(CPM+1)); higher = more efficient recombination; extreme values may be limits of the assay; sequences stand for … in AGTGCAGAGAAAATCGGCCAGTTTTCTCTGCCTGCAGTCCGCATGCCGTGGGACCCCTTGGGTTCTAACCTGTTGCCTAGATTTATGCAGCGGACTGCCTTTCTCCCAAAGTGATAAACCGG…AGGTTGGTTTCACT; site = the 11-nt donor
Procedure, shortened: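 Reported values are log10(CPM+1) from a pooled Escherichia coli screen of donor and donor-binding-loop pairs for the IS621 bridge recombinase. Selection used IPTG (0.07 mM) plus kanamycin, against unselected plating, each in two replicates. Recombinant UMIs were amplified across the donor–target junction, sequenced, converted to CPM, averaged over replicates and scaled by control-derived factors.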
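Further: IS621 bridge recombinase in Escherichia coli cells against a fixed T5 target plasmid.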

Sequence	recombinant UMI read abundance (log10)
CAAGCACCATGGACCGGTTTTCCCGGTAATCCGTATTTGTG (site CAAGCGCCTCA)	0.00843
CAAGCACCATGGACCGGTTTTCCCGGTAATCCGTATTTGTG (site CAAGCTCCTCA)	0
CAAGCAGCATGGACCGGTTTTCCCGGTAATCCGTATTTGCA (site CAAGCAGCTAG)	1.22
CAAGCAGCATGGACCGGTTTTCCCGGTAATCCGTATTTGCA (site CAAGCAGCTCG)	1.43
CAAGCAGCATGGACCGGTTTTCCCGGTAATCCGTATTTGCA (site CAAGCAGCTGG)	1.06
CAAGCAGCATGGACCGGTTTTCCCGGTAATCCGTATTTGCA (site CAAGCAGCTTG)	2.81
CAAGCAGCATGGACCGGTTTTCCCGGTAATCCGTATTTGGT (site CAAGCAGCTAA)	0.922
CAAGCAGCATGGACCGGTTTTCCCGGTAATCCGTATTTGGT (site CAAGCAGCTAC)	1.73
CAAGCAGCATGGACCGGTTTTCCCGGTAATCCGTATTTGGT (site CAAGCAGCTAG)	1.5
CAAGCAGCATGGACCGGTTTTCCCGGTAATCCGTATTTGGT (site CAAGCAGCTAT)	1.85
CAAGCGACATGGACCGGTTTTCCCGGTAATCCGTATTTGTG (site CAAGCGACTCA)	1.19
CAAGCGACATGGACCGGTTTTCCCGGTAATCCGTATTTGTG (site CAAGCGCCTCA)	0.00397
CAAGCGACATGGACCGGTTTTCCCGGTAATCCGTATTTGTG (site CAAGCGGCTCA)	1.2
CAAGCGACATGGACCGGTTTTCCCGGTAATCCGTATTTGTG (site CAAGCGTCTCA)	0.756
CAAGCTCCATGGACCGGTTTTCCCGGTAATCCGTATTTGTG (site CAAGCACCTCA)	0.0218
CAAGCTCCATGGACCGGTTTTCCCGGTAATCCGTATTTGTG (site CAAGCCCCTCA)	0.0101
CAAGCTCCATGGACCGGTTTTCCCGGTAATCCGTATTTGTG (site CAAGCGCCTCA)	0.0257
CAAGCTCCATGGACCGGTTTTCCCGGTAATCCGTATTTGTG (site CAAGCTCCTCA)	0.0252
CAAGGCCCATGGACCGGTTTTCCCGGTAATCCGTATTTGGC (site CAAGGCCCTGC)	2.11
CAAGGTGCATGGACCGGTTTTCCCGGTAATCCGTATTTGTT (site CAAGGTGCTAA)	2.59
CAAGTAACATGGACCGGTTTTCCCGGTAATCCGTATTTGAC (site CAAGTAACTGT)	3.09
CAAGTAACATGGACCGGTTTTCCCGGTAATCCGTATTTGAC (site CTAGTATCTGT)	0.497
CAAGTATCATGGACCGGTTTTCCCGGTAATCCGTATTTGTC (site CAAGTATCTGA)	2.66
CAAGTATCATGGACCGGTTTTCCCGGTAATCCGTATTTGTC (site CTAGTATCTGT)	0
CAAGTCACATGGACCGGTTTTCCCGGTAATCCGTATTTGGC (site CAAGTCACTAC)	0.739

Sequence	recombinant UMI read abundance (log10)
CAAGTCACATGGACCGGTTTTCCCGGTAATCCGTATTTGGC (site CAAGTCACTCC)	0.402
CAAGTCACATGGACCGGTTTTCCCGGTAATCCGTATTTGGC (site CAAGTCACTGC)	2.99
CAAGTCACATGGACCGGTTTTCCCGGTAATCCGTATTTGGC (site CAAGTCACTTC)	0.596
CAAGTCTCATGGACCGGTTTTCCCGGTAATCCGTATTTGAC (site CAAGTCTCTGT)	3.08
CAAGTCTCATGGACCGGTTTTCCCGGTAATCCGTATTTGAC (site CTAGTATCTGT)	0.00697
CAATCAACATGGACCGGTTTTCCCGGTAATCCGTATTTGTG (site CAATCAACTCA)	0.737
CAATCCCCATGGACCGGTTTTCCCGGTAATCCGTATTTGCT (site CAATACCCTAG)	1.5
CAATCCCCATGGACCGGTTTTCCCGGTAATCCGTATTTGCT (site CAATCCCCTAG)	0.977
CAATCCCCATGGACCGGTTTTCCCGGTAATCCGTATTTGCT (site CAATGCCCTAG)	0
CAATCCCCATGGACCGGTTTTCCCGGTAATCCGTATTTGCT (site CAATTCCCTAG)	1.78
CAATCGCCATGGACCGGTTTTCCCGGTAATCCGTATTTGTG (site CAAACGCCTCA)	0.0185
CAATCGCCATGGACCGGTTTTCCCGGTAATCCGTATTTGTG (site CAACCGCCTCA)	0.0282
CAATCGCCATGGACCGGTTTTCCCGGTAATCCGTATTTGTG (site CAAGCGCCTCA)	0.0173
CAATCGCCATGGACCGGTTTTCCCGGTAATCCGTATTTGTG (site CAATCGCCTCA)	0.22
CAATCGTCATGGACCGGTTTTCCCGGTAATCCGTATTTGCT (site CAATCGTCTAG)	2.84
CAATCGTCATGGACCGGTTTTCCCGGTAATCCGTATTTGCT (site CGATCATCTAG)	0
CAATCTACATGGACCGGTTTTCCCGGTAATCCGTATTTGTC (site CAATCTACTGA)	2.28
CAATGGCCATGGACCGGTTTTCCCGGTAATCCGTATTTGCA (site AAATGGCCTTG)	0
CAATGGCCATGGACCGGTTTTCCCGGTAATCCGTATTTGCA (site CAATGGCCTTG)	0.253
CAATGGCCATGGACCGGTTTTCCCGGTAATCCGTATTTGCA (site GAATGGCCTTG)	0
CAATGGCCATGGACCGGTTTTCCCGGTAATCCGTATTTGCA (site TAATGGCCTTG)	0.198
CAATTACCATGGACCGGTTTTCCCGGTAATCCGTATTTGCT (site CAATTACCTAG)	0
CAATTACCATGGACCGGTTTTCCCGGTAATCCGTATTTGCT (site CAATTCCCTAG)	0
CAATTACCATGGACCGGTTTTCCCGGTAATCCGTATTTGCT (site CAATTGCCTAG)	0
CAATTACCATGGACCGGTTTTCCCGGTAATCCGTATTTGCT (site CAATTTCCTAG)	0

Sequence	recombinant UMI read abundance (log10)
CAATTCCCATGGACCGGTTTTCCCGGTAATCCGTATTTGTT (site CAATTCCCTAA)	1.71
CAATTCCCATGGACCGGTTTTCCCGGTAATCCGTATTTGTT (site CAATTCCCTAC)	0.942
CAATTCCCATGGACCGGTTTTCCCGGTAATCCGTATTTGTT (site CAATTCCCTAG)	1.41
CAATTCCCATGGACCGGTTTTCCCGGTAATCCGTATTTGTT (site CAATTCCCTAT)	1.15
CAATTGACATGGACCGGTTTTCCCGGTAATCCGTATTTGCG (site CAATTGACTCG)	2.58
CAATTGGCATGGACCGGTTTTCCCGGTAATCCGTATTTGGA (site CAATTGGCTTC)	0.902
CAATTGGCATGGACCGGTTTTCCCGGTAATCCGTATTTGGA (site CACTTGGCTTC)	0.0126
CAATTGGCATGGACCGGTTTTCCCGGTAATCCGTATTTGGA (site CAGTTGGCTTC)	0.585
CAATTGGCATGGACCGGTTTTCCCGGTAATCCGTATTTGGA (site CATTTGGCTTC)	0.313
CACACAACATGGACCGGTTTTCCCGGTAATCCGTATTTGAA (site CACACAACTTT)	1.84
CACACGGCATGGACCGGTTTTCCCGGTAATCCGTATTTGAG (site CACACGGCTCT)	1.83
CACAGGGCATGGACCGGTTTTCCCGGTAATCCGTATTTGAG (site CACAGGGCTCT)	1.97
CACATATCATGGACCGGTTTTCCCGGTAATCCGTATTTGTC (site CACATATCTGA)	1.5
CACATATCATGGACCGGTTTTCCCGGTAATCCGTATTTGTC (site CCCATATCTGA)	0.724
CACATATCATGGACCGGTTTTCCCGGTAATCCGTATTTGTC (site CGCATATCTGA)	0.92
CACATATCATGGACCGGTTTTCCCGGTAATCCGTATTTGTC (site CTCATATCTGA)	0
CACATCCCATGGACCGGTTTTCCCGGTAATCCGTATTTGCA (site CACATCCCTTG)	2
CACCGTTCATGGACCGGTTTTCCCGGTAATCCGTATTTGTG (site CACCGTTCTCA)	1.9
CACCTGCCATGGACCGGTTTTCCCGGTAATCCGTATTTGAC (site CACCTGCCTGT)	0
CACGCCCCATGGACCGGTTTTCCCGGTAATCCGTATTTGTT (site CACGACCCTAA)	0.0224
CACGCCCCATGGACCGGTTTTCCCGGTAATCCGTATTTGTT (site CACGCCCCTAA)	0.348
CACGCCCCATGGACCGGTTTTCCCGGTAATCCGTATTTGTT (site CACGGCCCTAA)	0
CACGCCCCATGGACCGGTTTTCCCGGTAATCCGTATTTGTT (site CACGTCCCTAA)	0.0223
CACGCCTCATGGACCGGTTTTCCCGGTAATCCGTATTTGCC (site CACACCTCTGG)	2.73
CACGCCTCATGGACCGGTTTTCCCGGTAATCCGTATTTGCC (site CACCCCTCTGG)	1.65
